Data as given in PMC10541456, “A phase I, single‐center, open‐label study to investigate the absorption, distribution, metabolism and excretion of encorafenib following a single oral dose of 100 mg [ ^14C] encorafenib in healthy male subjects” (Pharmacology Research & Perspectives, 2023).

Tests used:
[1] = design: method as in data on file; settings: in vitro study; ref data on file; cited from earlier work
[2] = Metabolite profiles in plasma (UPLC, radioactivity detection, MS); assay type: in vivo, human
Method: To the thawed plasma samples (1.5 mL plasma/ time points) two volumes of ice‐cold acetonitrile:ethanol:acetic acid (90:10:0.1, v/v) were added, followed by vortex mixing (10 min) and sonication (10 min). After centrifugation, the supernatants (4.2 mL) were evaporated to near dryness under a gentle stream of nitrogen on a TurboVap LV (Zymark Corp.). The residues were reconstituted in 80 μL of methanol:water:acetic acid (50:50:0.1, v/v) and 45 μL were injected into the ultra‐performance liquid chromatography (UPLC) system with off‐line radioactivity detection.
Characterization and quantification of the metabolites of encorafenib in select human plasma and excreta samples were performed by the Department of DMPK (Drug Metabolism and Pharmacokinetics) at the Novartis Institutes for Biomedical Research (East Hanover, NJ, USA) using liquid chromatography (LC) coupled to radioactivity detectors and mass spectrometers (MS).
The analytical system consisted of a Waters ACQUITY UPLC system (Waters), equipped with a Phenomenex Luna PFP column (3 μm, 4.6 × 150 mm) (Phenomenex) and a guard column of the same phase, both maintained at a temperature of 30°C. The mobile phases consisted of 10 mM ammonium acetate containing 0.1% formic acid (v/v) (solvent A) and CH3CN (solvent B). The total run time was 80 min. A linear gradient elution program was used with a flow rate of 1 mL/min as described in Table 1.
The UPLC effluent was split 4:1, with […] of the total flow introduced to the mass spectrometer for mass spectral analysis and the remaining flow used for radioactivity detection.
For off‐line radioactivity detection, the eluant was collected into 96‐well Lumaplate (Packard Instrument Co) microplates using a Collect Pal fraction collector (Leap Technologies) with a collection time of 10 seconds per well. The LumaPlates were sealed after drying and counted for 10–50 min per well on a Packard Topcount microplate scintillation counter. The structural characterization of metabolites was carried out using the above UPLC profiling method coupled to a two‐channel Z‐spray (LockSprayTM) time‐of‐flight mass spectrometer (Synapt MS). Leucine enkephalin was used as the mass reference standard for exact mass measurements and was delivered via the second spray channel at a flow rate of 5 μL/minute. The mass spectrometer was operated at a resolution of ~10 000 m/ΔmFWHM with spectra being collected from 100 to 1000 amu. The ionization technique employed was positive electrospray. The sprayer voltage was kept at 3100 V and the sampling cone voltage was kept at a potential of 20 V. For the time‐of‐flight MS/MS experiments, trap energies of 25 to 45 eV and transfer energy of 15 eV were used with argon as the collision gas.
All radioactivity data were transferred to Laura software (version 4.2.2.24, Lab Logic Ltd, UK) to generate and integrate radio‐chromatograms. Radioactive peaks for quantitative analysis were manually selected from the plots. The radioactivity in the region encompassing the beginning and end of the peak was summed. All further calculations were based on radioactivity.
The percent of radioactivity (%RA) in a particular peak, Z, was calculated as follows in Equation (1): (1) %RAinZ=DPMin PeakZ/totalDPMinallintegrated peaksx100
The concentration or amount of each component was calculated as % RA (expressed as a fraction) multiplied by the total concentration of radioactivity in plasma, or the percent of dose in the excreta.

Mean (range) Circulating Radioactivity in Plasma Based on AUC0-24 ([2]; 100 mg oral [14C] encorafenib): 4400 (2340–7140) ngEq/mL*h | Mean (range) Circulating Radioactivity in Plasma Based on AUC0-24 (%) ([2]; M12.8 value is sum of M12.8 and M13.2): 27.5% | Mean (range) Circulating Radioactivity in Plasma Based on AUC0-24 (%) ([2]; M12.8 value is sum of M12.8 and M13.2, listed as Encorafenib (LGX818)): 27.5 (17.9–36.4) %
SMILES: COC(=O)N[C@@H](C)CNc1nccc(-c2cn(C(C)C)nc2-c2cc(Cl)cc(NS(C)(=O)=O)c2F)n1 [encorafenib]
[blood]/[plasma] in vitro [1]: 0.75 ± 0.21
